ChEMBL document CHEMBL1201862, “PubChem BioAssay data set” (2004)
Each block holds one molecule with its values, some of them ahead of it. Active and inactive are the calls of the source.

Key:
[1] = target: Beta-2 adrenergic receptor (Homo sapiens, UniProt P07550); assay: ADRB2 activation measured by internalization – cell-based, FAP fluorogen, flow cytometry, cherry pick 1, dose response (AID 588763); assay type: functional
[2] = target: Peroxisome proliferator-activated receptor gamma/Nuclear receptor coactivator 3 (Homo sapiens, UniProt P37231); assay: (§1) TR-FRET dose response biochemical High Throughput Screening assay for agonists of the steroid receptor coactivator 3 (SRC-3) recruitment by the peroxisome proliferator-activated receptor gamma (PPAR gamma): non-selective agonists. [Related pubchem assays: 1301 (Confirmation screen.), 1048 (Primary screen.)]; assay type: functional
[3] = target: Peroxisome proliferator-activated receptor gamma/Nuclear receptor coactivator 1 (Homo sapiens, UniProt P37231); assay: as §1, with “1 (SRC-1)” for “3 (SRC-3)”, “assays (depositor defined):AID1300, AID1808, AID504735, AID631]” for “assays: 1301 (Confirmation screen.), 1048 (Primary screen.)]”; assay type: protein assay
[4] = target: Peroxisome proliferator-activated receptor gamma/Nuclear receptor coactivator 2 (Homo sapiens, UniProt P37231); assay: TR-FRET dose response biochemical High Throughput Screening assay for agonists of the steroid receptor coactivator 2 (SRC-2) recruitment by the peroxisome proliferator-activated receptor gamma (PPAR gamma): non-selective agonists. [Related pubchem assays: 1297, 1032 ]; assay type: functional
[5] = target: T1, Short transient receptor potential channel 4 (Mus musculus, UniProt Q9QUQ5); assay: calcium entry via TRPC4 opening agents – cell-based, HEK293 TRPC4/mu-opioid, Fluo-4 calcium, dose response (AID 434937); assay type: functional
T1 sequence (Q9QUQ5 whole entry): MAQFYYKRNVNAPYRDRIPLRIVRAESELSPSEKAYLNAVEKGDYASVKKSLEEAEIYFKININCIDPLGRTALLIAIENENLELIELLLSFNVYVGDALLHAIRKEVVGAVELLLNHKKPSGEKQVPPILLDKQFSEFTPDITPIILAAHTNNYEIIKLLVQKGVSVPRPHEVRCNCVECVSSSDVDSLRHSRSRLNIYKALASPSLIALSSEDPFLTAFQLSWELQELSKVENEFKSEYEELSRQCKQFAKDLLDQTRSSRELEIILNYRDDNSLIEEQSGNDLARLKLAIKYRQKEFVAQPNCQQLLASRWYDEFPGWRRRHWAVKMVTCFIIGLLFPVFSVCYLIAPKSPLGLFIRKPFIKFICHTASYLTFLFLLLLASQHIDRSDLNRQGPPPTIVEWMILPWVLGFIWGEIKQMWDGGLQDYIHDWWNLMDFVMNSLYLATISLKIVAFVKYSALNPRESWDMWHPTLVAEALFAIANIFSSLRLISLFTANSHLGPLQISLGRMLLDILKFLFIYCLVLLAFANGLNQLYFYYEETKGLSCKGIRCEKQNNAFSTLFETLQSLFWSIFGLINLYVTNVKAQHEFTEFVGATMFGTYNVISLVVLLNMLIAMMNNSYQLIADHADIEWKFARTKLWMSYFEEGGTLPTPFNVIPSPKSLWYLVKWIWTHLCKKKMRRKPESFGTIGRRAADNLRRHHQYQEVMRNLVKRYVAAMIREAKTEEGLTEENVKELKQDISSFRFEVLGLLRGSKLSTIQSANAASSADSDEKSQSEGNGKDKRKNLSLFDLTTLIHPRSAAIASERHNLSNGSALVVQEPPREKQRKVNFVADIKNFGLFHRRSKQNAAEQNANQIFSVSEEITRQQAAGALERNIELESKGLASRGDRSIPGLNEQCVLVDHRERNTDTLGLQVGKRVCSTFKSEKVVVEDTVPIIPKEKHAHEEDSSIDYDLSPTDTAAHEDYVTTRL

Leucine aminopeptidase = target: T2, Leucine aminopeptidase (Plasmodium falciparum 3D7, UniProt Q8IL11); assay: P. falciparum M17LAP inhibitors, primary screen, biochemical, fluorogenic H-Leu-NHMec substrate, 1536-well (AID 1619); assay type: functional
T2 sequence (Q8IL11 whole entry): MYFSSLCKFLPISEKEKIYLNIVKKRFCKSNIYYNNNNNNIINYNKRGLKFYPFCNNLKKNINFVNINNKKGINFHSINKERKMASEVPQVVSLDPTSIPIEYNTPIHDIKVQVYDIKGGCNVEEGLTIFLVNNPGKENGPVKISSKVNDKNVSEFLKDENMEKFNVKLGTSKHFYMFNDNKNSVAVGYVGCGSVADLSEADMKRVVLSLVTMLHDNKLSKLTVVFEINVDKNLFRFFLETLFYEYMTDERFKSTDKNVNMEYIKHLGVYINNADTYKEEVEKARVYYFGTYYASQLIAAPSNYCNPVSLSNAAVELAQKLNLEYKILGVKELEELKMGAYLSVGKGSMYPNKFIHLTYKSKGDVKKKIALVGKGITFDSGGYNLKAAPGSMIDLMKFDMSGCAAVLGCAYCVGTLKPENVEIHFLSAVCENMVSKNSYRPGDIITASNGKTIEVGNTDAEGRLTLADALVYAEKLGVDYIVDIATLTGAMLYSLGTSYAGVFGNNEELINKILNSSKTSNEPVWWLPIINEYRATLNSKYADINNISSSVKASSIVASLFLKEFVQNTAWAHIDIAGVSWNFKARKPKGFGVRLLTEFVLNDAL

[6] = target: T3, Heat shock factor protein 1 (Mus musculus, UniProt P38532); assay: decrease of HSF1-responsive luciferase luminescence – cell-based, NIH3T3, dose retest, confirmation (AID 2382); assay type: functional;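 further: NIH3T3 fibroblasts with HSF1-driven luciferase reporter stressed by proteasome inhibitor MG132; luminescence from HSF1-driven luciferase expression after 8 hours of MG132 stress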
T3 sequence (P38532 whole entry): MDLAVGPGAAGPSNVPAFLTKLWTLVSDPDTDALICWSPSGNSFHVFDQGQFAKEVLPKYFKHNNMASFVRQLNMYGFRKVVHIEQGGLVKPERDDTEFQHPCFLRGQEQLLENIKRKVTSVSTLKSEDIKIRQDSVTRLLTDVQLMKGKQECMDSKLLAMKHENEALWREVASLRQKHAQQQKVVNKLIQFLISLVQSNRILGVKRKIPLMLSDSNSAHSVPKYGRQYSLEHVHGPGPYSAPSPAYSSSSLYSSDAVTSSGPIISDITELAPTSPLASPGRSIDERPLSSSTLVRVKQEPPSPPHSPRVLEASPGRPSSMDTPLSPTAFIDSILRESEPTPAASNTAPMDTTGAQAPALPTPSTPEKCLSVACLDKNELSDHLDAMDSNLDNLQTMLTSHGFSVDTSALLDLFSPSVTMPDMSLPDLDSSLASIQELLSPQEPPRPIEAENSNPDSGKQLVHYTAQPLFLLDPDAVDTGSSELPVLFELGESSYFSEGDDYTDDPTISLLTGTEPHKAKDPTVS

Phospholipase D1 = target: T4, Phospholipase D1 (Homo sapiens, UniProt Q13393); assay: cellular phospholipase D1 inhibition IC50 – cell-based, dose response (AID 602151); assay type: functional;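 further: cellular PLD1 assay in Calu-1 cells stimulated with PMA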
T4 sequence (Q13393 whole entry): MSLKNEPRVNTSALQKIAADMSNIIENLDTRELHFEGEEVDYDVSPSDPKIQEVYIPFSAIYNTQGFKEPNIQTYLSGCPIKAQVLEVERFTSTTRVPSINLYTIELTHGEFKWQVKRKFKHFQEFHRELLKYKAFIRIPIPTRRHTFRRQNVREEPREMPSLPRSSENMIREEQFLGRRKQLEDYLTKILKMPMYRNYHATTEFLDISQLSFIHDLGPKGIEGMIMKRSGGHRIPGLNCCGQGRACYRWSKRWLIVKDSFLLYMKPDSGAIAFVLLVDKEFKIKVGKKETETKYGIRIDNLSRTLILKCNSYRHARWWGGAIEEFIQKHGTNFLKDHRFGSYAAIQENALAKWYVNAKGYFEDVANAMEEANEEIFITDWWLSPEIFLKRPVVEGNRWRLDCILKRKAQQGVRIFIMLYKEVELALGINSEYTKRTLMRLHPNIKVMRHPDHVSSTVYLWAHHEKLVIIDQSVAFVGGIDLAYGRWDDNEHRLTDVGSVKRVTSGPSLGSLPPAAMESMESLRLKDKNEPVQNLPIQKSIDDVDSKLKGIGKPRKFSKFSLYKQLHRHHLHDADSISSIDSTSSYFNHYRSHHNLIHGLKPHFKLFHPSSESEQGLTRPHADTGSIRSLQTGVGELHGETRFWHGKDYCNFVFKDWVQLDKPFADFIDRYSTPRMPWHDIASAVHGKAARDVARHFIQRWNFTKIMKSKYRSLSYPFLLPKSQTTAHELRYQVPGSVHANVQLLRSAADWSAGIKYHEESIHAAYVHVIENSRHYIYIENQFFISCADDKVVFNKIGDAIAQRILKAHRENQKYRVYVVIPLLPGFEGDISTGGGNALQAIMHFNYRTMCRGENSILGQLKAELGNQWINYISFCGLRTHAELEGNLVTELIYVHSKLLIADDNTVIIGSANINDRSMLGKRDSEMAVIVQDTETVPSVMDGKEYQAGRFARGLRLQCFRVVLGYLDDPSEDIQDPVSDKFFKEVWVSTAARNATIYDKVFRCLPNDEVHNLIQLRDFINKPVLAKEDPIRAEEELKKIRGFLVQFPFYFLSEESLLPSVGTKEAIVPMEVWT

Phospholipase D2 = Phospholipase D2 (Homo sapiens, UniProt O14939); assay: cellular phospholipase D2 inhibition IC50 – cell-based, dose response (AID 602147); assay type: functional;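 further: cellular assay in HEK293 cells overexpressing GFP-tagged PLD2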
[7] = blockers of HIV-1 envelope-mediated cell-cell fusion – cherry-pick, dose response (AID 652057); assay type: functional, cell-based
[8] = off-target signal loss in HeLa-CEM21 co-culture – HeLa F-luc CTL cells, cherry-picked, counter-screen for HIV-1 Env fusion inhibitor project, dose response (AID 652040); assay type: functional, cell-based;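 further: potency for signal decrease marking cytotoxic or nonspecific inhibition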
[9] = blockers of HIV-1 ZM109 envelope-driven cell-cell fusion – HeLa effector, CEM target cells, luciferase, cherry-pick, dose response (AID 652058); assay type: functional, cell-based;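 further: luciferase signal from HIV-1 Env mediated cell-cell fusion of effector and target cells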
[10] = HIV-1 AD8 envelope cell-cell fusion blockers – cherry-pick, dose response (AID 652062); assay type: functional, cell-based;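 further: luciferase signal from cell-cell fusion driven by HIV-1 clade B AD8 Env; potency is for inhibitors of fusion seen as a drop in luminescence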

Sequence of Peroxisome proliferator-activated receptor gamma/Nuclear receptor coactivator 3 (P37231 whole entry): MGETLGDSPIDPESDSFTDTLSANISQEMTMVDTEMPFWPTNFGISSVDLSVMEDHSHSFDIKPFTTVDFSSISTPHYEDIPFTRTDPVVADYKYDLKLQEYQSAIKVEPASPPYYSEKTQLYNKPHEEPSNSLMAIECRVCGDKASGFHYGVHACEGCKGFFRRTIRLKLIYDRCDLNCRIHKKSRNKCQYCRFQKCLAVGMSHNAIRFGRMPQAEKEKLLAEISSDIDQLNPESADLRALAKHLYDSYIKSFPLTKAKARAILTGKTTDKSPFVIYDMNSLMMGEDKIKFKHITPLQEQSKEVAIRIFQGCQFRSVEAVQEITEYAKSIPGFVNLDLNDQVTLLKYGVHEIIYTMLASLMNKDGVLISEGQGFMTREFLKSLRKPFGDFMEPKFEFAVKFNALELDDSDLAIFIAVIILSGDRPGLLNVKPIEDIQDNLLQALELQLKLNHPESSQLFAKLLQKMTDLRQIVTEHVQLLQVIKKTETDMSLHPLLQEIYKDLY
Sequence of Peroxisome proliferator-activated receptor gamma/Nuclear receptor coactivator 3 (Q9Y6Q9 whole entry, further chain): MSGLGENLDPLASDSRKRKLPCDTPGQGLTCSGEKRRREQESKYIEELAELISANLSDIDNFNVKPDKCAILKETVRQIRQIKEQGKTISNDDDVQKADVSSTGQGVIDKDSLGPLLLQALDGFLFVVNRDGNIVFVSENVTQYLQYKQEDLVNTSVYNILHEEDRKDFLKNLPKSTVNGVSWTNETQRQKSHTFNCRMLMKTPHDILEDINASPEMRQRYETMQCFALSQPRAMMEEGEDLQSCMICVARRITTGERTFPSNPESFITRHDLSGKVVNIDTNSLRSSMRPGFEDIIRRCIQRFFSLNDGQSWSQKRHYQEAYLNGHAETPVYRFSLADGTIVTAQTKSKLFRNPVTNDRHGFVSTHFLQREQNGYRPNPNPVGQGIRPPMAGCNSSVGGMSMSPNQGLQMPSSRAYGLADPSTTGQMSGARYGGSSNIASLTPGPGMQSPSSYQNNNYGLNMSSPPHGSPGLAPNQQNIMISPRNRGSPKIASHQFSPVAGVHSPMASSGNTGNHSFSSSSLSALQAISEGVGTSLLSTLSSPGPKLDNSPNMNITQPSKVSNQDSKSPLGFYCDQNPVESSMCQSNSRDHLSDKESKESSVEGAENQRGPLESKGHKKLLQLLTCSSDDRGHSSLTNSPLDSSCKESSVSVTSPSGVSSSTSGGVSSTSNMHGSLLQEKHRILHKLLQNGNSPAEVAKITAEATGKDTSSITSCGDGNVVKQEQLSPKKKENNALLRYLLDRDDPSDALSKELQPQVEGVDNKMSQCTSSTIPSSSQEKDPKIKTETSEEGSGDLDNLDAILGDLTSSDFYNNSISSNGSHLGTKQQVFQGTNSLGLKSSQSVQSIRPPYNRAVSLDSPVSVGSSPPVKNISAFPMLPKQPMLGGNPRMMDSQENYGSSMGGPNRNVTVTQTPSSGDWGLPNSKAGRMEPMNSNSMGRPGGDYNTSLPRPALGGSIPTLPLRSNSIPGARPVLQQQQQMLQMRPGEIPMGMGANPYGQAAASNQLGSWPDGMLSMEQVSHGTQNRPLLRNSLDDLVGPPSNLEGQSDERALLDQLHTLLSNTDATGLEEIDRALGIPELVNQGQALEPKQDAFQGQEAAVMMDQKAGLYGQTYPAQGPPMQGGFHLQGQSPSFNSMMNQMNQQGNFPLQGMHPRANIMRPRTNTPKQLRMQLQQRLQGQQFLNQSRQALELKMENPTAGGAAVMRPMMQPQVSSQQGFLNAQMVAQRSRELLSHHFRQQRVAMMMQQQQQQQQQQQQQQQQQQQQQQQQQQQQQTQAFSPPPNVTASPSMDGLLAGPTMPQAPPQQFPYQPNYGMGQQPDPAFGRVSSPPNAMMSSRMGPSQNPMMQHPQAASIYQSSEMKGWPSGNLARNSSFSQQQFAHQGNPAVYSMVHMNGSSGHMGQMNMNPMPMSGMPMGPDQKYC
Sequence of Peroxisome proliferator-activated receptor gamma/Nuclear receptor coactivator 2 (P37231 whole entry): as the sequence (P37231 whole entry) above
Sequence of Peroxisome proliferator-activated receptor gamma/Nuclear receptor coactivator 2 (Q15596 whole entry, further chain): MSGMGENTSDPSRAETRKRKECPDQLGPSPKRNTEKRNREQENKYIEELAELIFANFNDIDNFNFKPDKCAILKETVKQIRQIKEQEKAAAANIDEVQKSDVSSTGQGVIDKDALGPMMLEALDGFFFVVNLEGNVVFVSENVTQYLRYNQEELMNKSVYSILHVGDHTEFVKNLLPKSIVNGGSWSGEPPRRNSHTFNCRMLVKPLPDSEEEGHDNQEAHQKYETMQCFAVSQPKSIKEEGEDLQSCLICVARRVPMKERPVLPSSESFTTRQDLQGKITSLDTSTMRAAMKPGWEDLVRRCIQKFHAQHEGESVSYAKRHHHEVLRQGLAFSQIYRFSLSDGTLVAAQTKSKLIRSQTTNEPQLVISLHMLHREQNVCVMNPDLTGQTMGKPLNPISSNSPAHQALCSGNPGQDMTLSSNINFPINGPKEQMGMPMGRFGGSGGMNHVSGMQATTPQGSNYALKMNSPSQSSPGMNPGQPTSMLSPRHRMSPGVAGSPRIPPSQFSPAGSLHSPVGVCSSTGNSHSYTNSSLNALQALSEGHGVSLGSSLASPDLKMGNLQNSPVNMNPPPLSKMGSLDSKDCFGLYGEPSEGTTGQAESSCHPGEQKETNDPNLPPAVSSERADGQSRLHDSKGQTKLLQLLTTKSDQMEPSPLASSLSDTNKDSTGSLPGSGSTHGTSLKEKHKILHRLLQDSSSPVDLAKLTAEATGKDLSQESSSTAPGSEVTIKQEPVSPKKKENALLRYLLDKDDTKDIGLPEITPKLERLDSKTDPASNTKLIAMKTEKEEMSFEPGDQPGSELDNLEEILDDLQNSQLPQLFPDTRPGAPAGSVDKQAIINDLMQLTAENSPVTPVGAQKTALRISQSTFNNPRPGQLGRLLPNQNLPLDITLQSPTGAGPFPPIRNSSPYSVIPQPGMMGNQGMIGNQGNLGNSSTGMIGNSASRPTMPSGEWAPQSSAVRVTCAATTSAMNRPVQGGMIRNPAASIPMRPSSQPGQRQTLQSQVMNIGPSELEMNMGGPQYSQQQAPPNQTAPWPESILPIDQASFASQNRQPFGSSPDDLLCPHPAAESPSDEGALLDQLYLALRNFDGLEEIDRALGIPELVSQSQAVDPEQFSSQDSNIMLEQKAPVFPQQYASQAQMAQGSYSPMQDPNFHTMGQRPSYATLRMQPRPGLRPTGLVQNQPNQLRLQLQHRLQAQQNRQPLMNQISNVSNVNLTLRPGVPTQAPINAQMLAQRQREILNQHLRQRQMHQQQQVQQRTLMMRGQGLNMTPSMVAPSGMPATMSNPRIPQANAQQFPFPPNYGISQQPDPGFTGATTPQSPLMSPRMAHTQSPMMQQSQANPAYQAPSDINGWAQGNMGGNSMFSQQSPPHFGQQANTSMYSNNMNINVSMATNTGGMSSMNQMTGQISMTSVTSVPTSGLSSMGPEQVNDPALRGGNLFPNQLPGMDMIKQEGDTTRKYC
Sequence of Beta-2 adrenergic receptor (P07550 whole entry): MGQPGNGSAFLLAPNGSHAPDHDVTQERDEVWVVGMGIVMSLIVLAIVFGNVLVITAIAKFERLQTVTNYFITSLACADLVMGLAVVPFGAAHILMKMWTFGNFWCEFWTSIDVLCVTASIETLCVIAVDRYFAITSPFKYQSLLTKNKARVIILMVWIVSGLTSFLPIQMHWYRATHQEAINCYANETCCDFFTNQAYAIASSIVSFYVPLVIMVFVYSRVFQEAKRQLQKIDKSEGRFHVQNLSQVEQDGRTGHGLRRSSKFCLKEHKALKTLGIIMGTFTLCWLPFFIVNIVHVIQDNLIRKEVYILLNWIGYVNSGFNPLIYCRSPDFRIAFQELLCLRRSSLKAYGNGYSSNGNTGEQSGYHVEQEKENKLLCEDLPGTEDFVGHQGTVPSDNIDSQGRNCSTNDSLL

- EC50 [1]: 5.72 µM (active)
Structure (SMILES): CCCCC(=O)Nc1ccc(C(=O)N2CCCC(C(=O)OCC)C2)cc1 (centres undefined)

- EC50 [2]: > 79.4 µM (not active)
- EC50 [3]: > 79.4 µM (inactive)
- EC50 [4]: > 79.4 µM (not active)
Structure (SMILES): CCn1c(=O)cc(SCC(=O)Nc2cccc(C)n2)c2ccccc21

- EC50 [2]: > 79.4 µM (not active)
- EC50 [3]: 4.03 µM (active)
- EC50 [4]: 5.27 µM (active)
Structure (SMILES): C=CCn1c(=S)[nH]c2scc(-c3cccs3)c2c1=O

- EC50 [5]: 0.237 µM (active)
Structure (SMILES): Cc1sc2ncnc(NCC(c3ccccc3)N(C)C)c2c1C (centres undefined)

- IC50 (Leucine aminopeptidase): 58 µM (active)
- EC50 [5]: 1.68 µM (active)
- EC50 [6]: > 195 µM (not active)
Structure (SMILES): Cc1cccc(C(=O)NC(=S)NNC(=O)c2ccccc2Cl)c1

The remaining lines, values behind:

Structure (SMILES): O=C(NCCN1CCC(n2c(=O)[nH]c3cc(I)ccc32)CC1)C1CC1c1ccccc1 (centres undefined)
- IC50 (Phospholipase D1): 0.009 µM (active)
- IC50 (Phospholipase D2): 0.345 µM (active)

Structure (SMILES): COc1cc2c(c(OC)c1OC)[C@@]1(c3ccccc3)CCCC[C@H]1[C@@H]2NC(=O)C(F)(F)F
- AC50 [7]: 6.21 µM (active)
- AC50 [8]: 5.7 µM (active)
- AC50 [9]: 7.65 µM (active)

Structure (SMILES): COCCn1c(=S)[nH]c2cc(C(=O)N3CCN(Cc4ccc5c(c4)OCO5)CC3)ccc2c1=O
- AC50 [7]: 29.3 µM (active)
- AC50 [8]: 60.2 µM (active)
- AC50 [10]: 44.6 µM (active)
